Laboratory results reported in BindingDB's records for doi:10.1021/acs.jmedchem.6b01270 (University of Tennessee Health Science Center, 2017).
pIC50: −log10 of the molar value.

Assay: Inhibition of ATX (unknown origin) expressed in human A2058 cells assessed as inhibition of LPC-induced cell invasion after 20 hrs by calcein-AM dye based matrigel-mediated Boyden chamber assay

pIC50	Compound
6.39	O=S(=O)(c1cc(C(=S)Nc2cc(F)c(F)c(F)c2)c(Cl)cc1Cl)N1CCOCC1
6.28	O=C(Nc1ccc(F)c(F)c1)c1cc(S(=O)(=O)N2CCOCC2)c(Cl)cc1Cl
6.13	O=C(Nc1cc(F)c(Cl)c(F)c1)c1cc(S(=O)(=O)N2CCOCC2)c(Cl)cc1Cl
